Results taken from US20240165174A1, “[…]-BASED COMPOSITION AND USES THEREOF FOR R[…]” (priority 2021, published 2024).

System: primary human monocytes
Assay: Immunomodulation in human monocytes: cytokine/PGE2 release measured by ELISA after 24 h incubation
Format: cell-based
Settings: up to the highest concentration studied (0.68 μg/mL and 0.59 μg/mL respectively)
Protocol: Monocyte cell cultures: Primary human monocytes were prepared from the buffy coat of healthy human blood donors using a standardized procedure.
Cells were seeded in 24-well plates at a density of 2200000 cells/well for ELISA measurements. Monocytes were incubated with test elements (5 different concentrations) for 24 h. LPS (10 ng/mL, Salmonella typhimurium SL1181) served as a positive control for cytokine release. After 24 h, supernatants were removed, centrifuged and studied for IL-1β, MCP-1, IL-6, TNF and IL-8 concentrations by ELISA using the manufacturer's protocol (n=6, 3 different donors).

[Se] [selenium]
effect on basal cytokine release in human monocytes: Neither selenium, vitamin B6 nor vitamin D3 had any effect

Cc1ncc(CO)c(CO)c1O.Cl [vitamin B6]
effect on basal cytokine release in human monocytes: Neither selenium, vitamin B6 nor vitamin D3 had any effect

C=C1CC[C@H](O)C/C1=C/C=C1\CCC[C@]2(C)[C@@H]([C@H](C)CCCC(C)C)CC[C@@H]12 [vitamin D3, cholecalciferol]
effect on basal cytokine release in human monocytes: Neither selenium, vitamin B6 nor vitamin D3 had any effect
